Data as given in publication PMC5853465, “Use of D-glucose–fenpiclonil conjugate as a potent and specific inhibitor of sucrose carriers” (Journal of Experimental Botany, 2017).

Target: T1, AtSUC2 (Arabidopsis thaliana, UniProt Q39231)
T1 construct: gene SUC2; full coding region in plasmid pDR-R1-R2-HIS3 (derived from pDR 192), expressed in Saccharomyces cerevisiae RS453 cells
T1 sequence (Q39231 1-512): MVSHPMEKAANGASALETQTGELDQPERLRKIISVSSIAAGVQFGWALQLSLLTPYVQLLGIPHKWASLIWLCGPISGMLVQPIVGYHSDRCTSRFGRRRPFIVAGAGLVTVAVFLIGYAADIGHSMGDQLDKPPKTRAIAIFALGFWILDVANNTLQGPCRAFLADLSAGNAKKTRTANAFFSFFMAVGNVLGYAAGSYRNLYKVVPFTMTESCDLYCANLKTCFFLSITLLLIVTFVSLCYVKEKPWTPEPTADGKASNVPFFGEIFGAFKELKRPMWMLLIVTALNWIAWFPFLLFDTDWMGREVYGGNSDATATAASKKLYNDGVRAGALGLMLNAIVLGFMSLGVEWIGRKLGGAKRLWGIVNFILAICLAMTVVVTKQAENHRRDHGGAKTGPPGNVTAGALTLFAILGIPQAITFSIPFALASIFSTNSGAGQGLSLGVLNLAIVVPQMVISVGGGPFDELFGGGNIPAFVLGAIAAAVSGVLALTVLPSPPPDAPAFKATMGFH
Experiment: […]sucrose uptake into AtSUC2-transformed yeast, empty vector subtracted
Format: cell-based
Conditions: read-out: Inibition^b (%)

CC(C(=O)NCc1cn([C@@H]2O[C@H](CO)[C@@H](O)[C@H](O)[C@H]2O)nn1)n1cc(C#N)c(-c2cccc(Cl)c2Cl)c1 (stereo partly drawn) [D-GFC, D-glucose–fenpiclonil conjugate]
inhibition at 500 µM: 81.5%
